Converted amounts (≈) assume the structure as drawn. Read-outs that look alike come from different tables or passages of the source.
Tests used:
Assay in all cases: MIC, CLSI broth microdilution
Assay type in all cases: cell-based
[1] = tested on: A. baumannii AABA1020 (Fluoroquinolone-resistant); conditions: Table 3; for MIC: Acinetobacter baumannii
Method in brief: (§1)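 MICs were read after 20 hours at 35° C in ambient air, with a final inoculum of 5×10^5 CFU/mL from saline-suspended overnight colonies. Serial two-fold dilutions in Mueller Hinton Broth followed the CLSI reference method (M7-A7), with QC strains E. coli ATCC 25922, P. aeruginosa ATCC 27853 and S. aureus ATCC 29213.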

[2] = tested on: A. baumannii AABA1009 (Fluoroquinolone-resistant); conditions: for MIC: Acinetobacter baumannii, Table 2, read-out: MIC AABA 1009; for MIC AABA 1009: Table 2
Method in brief: as §1

[3] = tested on: S. pneumoniae ASPN1027 (Fluoroquinolone-resistant); conditions: for MIC: Streptococcus pneumoniae
Method in brief: as §1

[4] = tested on: S. pneumoniae ASPN001 (Fluoroquinolone-susceptible, ATCC49619); conditions: for MIC: Streptococcus pneumoniae
Method in brief: as §1

[5] = tested on: P. aeruginosa APAE001 (Fluoroquinolone-susceptible, ATCC27853); conditions: for MIC: Pseudomonas aeruginosa
Method in brief: as §1

[6] = tested on: S. aureus ASAU001 (Fluoroquinolone-susceptible, ATCC29213); conditions: for MIC: Staphylococcus aureus
Method in brief: as §1

[7] = tested on: E. coli AECO001 (Fluoroquinolone susceptible, ATCC25922); conditions: for MIC: Escherichia coli
Method in brief: as §1

[8] = tested on: S. pneumoniae ASPN1018 (Fluoroquinolone-resistant); conditions: Table 3; for MIC: Streptococcus pneumoniae
Method in brief: as §1

[9] = tested on: E. coli AECO002 (Fluoroquinolone susceptible); conditions: Table 3; for MIC: Escherichia coli
Method in brief: as §1

[10] = tested on: S. pneumoniae ASPN002 (Fluoroquinolone-susceptible, ATCC10813); conditions: Table 3; for MIC: Streptococcus pneumoniae
Method in brief: as §1

[11] = tested on: S. aureus ASAU1033 (Fluoroquinolone-resistant); conditions: Table 3; for MIC: Staphylococcus aureus
Method in brief: as §1

[12] = tested on: E. coli AECO086 (Fluoroquinolone-resistant); conditions: Table 3; for MIC: Escherichia coli
Method in brief: as §1

[13] = tested on: S. aureus ASAU1031 (Fluoroquinolone-resistant); conditions: for MIC: Staphylococcus aureus
Method in brief: as §1

[14] = tested on: P. aeruginosa APAE054 (Fluoroquinolone-resistant); conditions: for MIC: Pseudomonas aeruginosa
Method in brief: as §1

[15] = tested on: E. coli AECO066 (Fluoroquinolone-resistant); conditions: for MIC: Escherichia coli
Method in brief: as §1

[16] = tested on: P. aeruginosa APAE002 (Fluoroquinolone susceptible); conditions: Table 3; for MIC: Pseudomonas aeruginosa
Method in brief: as §1

[17] = tested on: S. aureus ASAU002 (Fluoroquinolone-susceptible, ATCC33591 (MRSA)); conditions: Table 3; for MIC: Staphylococcus aureus
Method in brief: as §1

[18] = tested on: A. baumannii AABA1065 (Fluoroquinolone-susceptible); conditions: for MIC: Acinetobacter baumannii
Method in brief: as §1

[19] = Table 2, read-out: MIC ASPN 1027
[20] = Table 2, read-out: MIC ASPN 001
[21] = Table 2, read-out: MIC APAE 001
[22] = Table 2, read-out: MIC ASAU 001
[23] = Table 2, 35° C., 20 hours, read-out: MIC AECO 001
[24] = Table 2, read-out: MIC ASAU 1031
[25] = Table 2, read-out: MIC APAE 054
[26] = Table 2, read-out: MIC AECO 066
[27] = Table 2, read-out: MIC AABA 1065

C[C@H]1COc2c(N3CCN(C)CC3)c(F)cc3c(=O)c(C(=O)O)cn1c23 [Levofloxacin, reference compound]
MIC [1]: > 8 µg/mL
MIC [2]: > 8 µg/mL
MIC [3, 19]: > 8 µg/mL
MIC ([3]; Table 3): > 8 µg/mL
MIC [4, 20]: 1 to 8 µg/mL (≈ 2.77 to 22.1 µM)
MIC ([4]; Table 3): 1 to 2 µg/mL (≈ 2.77 to 5.53 µM)
MIC [5, 21]: 1 to 8 µg/mL (≈ 2.77 to 22.1 µM)
MIC ([5]; Table 3): 1 to 2 µg/mL (≈ 2.77 to 5.53 µM)
MIC [6, 22]: ≤ 1 µg/mL
MIC ([6]; Table 3): < 1 µg/mL
MIC [7, 23]: ≤ 1 µg/mL
MIC ([7]; Table 3): < 1 µg/mL
MIC [8]: > 8 µg/mL
MIC [9]: < 1 µg/mL
MIC [10]: 1 to 2 µg/mL (≈ 2.77 to 5.53 µM)
MIC [11]: > 8 µg/mL
MIC [12]: > 8 µg/mL
MIC [13, 24]: > 8 µg/mL
MIC ([13]; Table 3): > 8 µg/mL
MIC [14, 25]: > 8 µg/mL
MIC ([14]; Table 3): > 8 µg/mL
MIC [15, 26]: > 8 µg/mL
MIC ([15]; Table 3): > 8 µg/mL
MIC [16]: < 1 µg/mL
MIC [17]: < 1 µg/mL
MIC [18, 27]: ≤ 1 µg/mL
MIC ([18]; Table 3): < 1 µg/mL

COc1c(N2C[C@@H]3CCCN[C@@H]3C2)c(F)cc2c(=O)c(C(=O)O)cn(C3CC3)c12 [Moxifloxacin, reference compound]
MIC [1]: > 8 µg/mL
MIC [2]: > 8 µg/mL
MIC [3, 19]: 1 to 8 µg/mL (≈ 2.49 to 19.9 µM)
MIC ([3]; Table 3): 2 to 8 µg/mL (≈ 4.98 to 19.9 µM)
MIC [4, 20]: ≤ 1 µg/mL
MIC ([4]; Table 3): < 1 µg/mL
MIC [5, 21]: 1 to 8 µg/mL (≈ 2.49 to 19.9 µM)
MIC ([5]; Table 3): 1 to 2 µg/mL (≈ 2.49 to 4.98 µM)
MIC [6, 22]: ≤ 1 µg/mL
MIC ([6]; Table 3): < 1 µg/mL
MIC [7, 23]: ≤ 1 µg/mL
MIC ([7]; Table 3): < 1 µg/mL
MIC [8]: 2 to 8 µg/mL (≈ 4.98 to 19.9 µM)
MIC [9]: < 1 µg/mL
MIC [10]: < 1 µg/mL
MIC [11]: > 8 µg/mL
MIC [12]: > 8 µg/mL
MIC [13, 24]: 1 to 8 µg/mL (≈ 2.49 to 19.9 µM)
MIC ([13]; Table 3): 2 to 8 µg/mL (≈ 4.98 to 19.9 µM)
MIC [14, 25]: > 8 µg/mL
MIC ([14]; Table 3): > 8 µg/mL
MIC [15, 26]: > 8 µg/mL
MIC ([15]; Table 3): > 8 µg/mL
MIC [16]: 1 to 2 µg/mL (≈ 2.49 to 4.98 µM)
MIC [17]: < 1 µg/mL
MIC [18, 27]: ≤ 1 µg/mL
MIC ([18]; Table 3): < 1 µg/mL

N[C@@H]1C[C@@H]2CCCc3c(c(F)cc4c(=O)c(C(=O)O)cn(C5CC5)c34)N2C1.O=C(O)C(F)(F)F [7E/49, (7aS,9R)-9-Amino-4-cyclopropyl-12-fluoro-1-oxo-4,5,6,7,7a,8,9,10-octahydro-1H-pyrrolo[1′,2′:1,7]-azepino[2,3-h]quinoline-2-carboxylic acid trifluoroacetate]
MIC AABA1020 [1]: D (MIC's of greater than 8.0 μg/mL = D)
MIC AABA 1009 [2]: C (MIC's of greater than 8.0 μg/mL = C)
MIC ASPN 1027 ([3]; Table 2): C (MIC's of greater than 8.0 μg/mL = C)
MIC ASPN 1027 ([3]; Table 3): D (MIC's of greater than 8.0 μg/mL = D)
MIC ASPN 001 ([4]; Table 2): C (MIC's of greater than 8.0 μg/mL = C)
MIC ASPN 001 ([4]; Table 3): D (MIC's of greater than 8.0 μg/mL = D)
MIC APAE 001 ([5]; Table 2): C (MIC's of greater than 8.0 μg/mL = C)
MIC APAE 001 ([5]; Table 3): D (MIC's of greater than 8.0 μg/mL = D)
MIC ASAU 001 ([6]; Table 2): B (MIC's of greater than 1.0 μg/mL to 8.0 μg/mL = B)
MIC ASAU 001 ([6]; Table 3): C (MIC's of 2.0 μg/mL to 8.0 μg/mL = C)
MIC AECO 001 ([7]; Table 2, 35° C., 20 hours): C (MIC's of greater than 8.0 μg/mL = C)
MIC AECO 001 ([7]; Table 3): D (MIC's of greater than 8.0 μg/mL = D)
MIC ASPN1018 [8]: C (MIC's of 2.0 μg/mL to 8.0 μg/mL = C)
MIC AECO002 [9]: D (MIC's of greater than 8.0 μg/mL = D)
MIC ASPN002 [10]: D (MIC's of greater than 8.0 μg/mL = D)
MIC ASAU1033 [11]: D (MIC's of greater than 8.0 μg/mL = D)
MIC AECO086 [12]: D (MIC's of greater than 8.0 μg/mL = D)
MIC ASAU 1031 ([13]; Table 2): C (MIC's of greater than 8.0 μg/mL = C)
MIC ASAU 1031 ([13]; Table 3): D (MIC's of greater than 8.0 μg/mL = D)
MIC APAE 054 ([14]; Table 2): C (MIC's of greater than 8.0 μg/mL = C)
MIC APAE 054 ([14]; Table 3): D (MIC's of greater than 8.0 μg/mL = D)
MIC AECO 066 ([15]; Table 2): C (MIC's of greater than 8.0 μg/mL = C)
MIC AECO 066 ([15]; Table 3): D (MIC's of greater than 8.0 μg/mL = D)
MIC APAE002 [16]: D (MIC's of greater than 8.0 μg/mL = D)
MIC ASAU002 [17]: C (MIC's of 2.0 μg/mL to 8.0 μg/mL = C)
MIC AABA 1065 ([18]; Table 2): C (MIC's of greater than 8.0 μg/mL = C)
MIC AABA 1065 ([18]; Table 3): D (MIC's of greater than 8.0 μg/mL = D)

NC1CC2CC=Cc3c(c(F)cc4c(=O)c(C(=O)O)cn(C5CC5)c34)N2C1.O=C(O)C(F)(F)F [7C/30, (7aS,9S)-9-Amino-4-cyclopropyl-12-fluoro-1-oxo-4,7,7a,8,9,10-hexahydro-1H-pyrrolo[1′,2′:1,7]azepino-[2,3-h]quinoline-2-carboxylic acid trifluoroacetate]
MIC AABA1020 [1]: D (MIC's of greater than 8.0 μg/mL = D)
MIC AABA 1009 [2]: C (MIC's of greater than 8.0 μg/mL = C)
MIC ASPN 1027 ([3]; Table 2): B (MIC's of greater than 1.0 μg/mL to 8.0 μg/mL = B)
MIC ASPN 1027 ([3]; Table 3): C (MIC's of 2.0 μg/mL to 8.0 μg/mL = C)
MIC ASPN 001 ([4]; Table 2): B (MIC's of greater than 1.0 μg/mL to 8.0 μg/mL = B)
MIC ASPN 001 ([4]; Table 3): C (MIC's of 2.0 μg/mL to 8.0 μg/mL = C)
MIC APAE 001 ([5]; Table 2): C (MIC's of greater than 8.0 μg/mL = C)
MIC APAE 001 ([5]; Table 3): D (MIC's of greater than 8.0 μg/mL = D)
MIC ASAU 001 ([6]; Table 2): B (MIC's of greater than 1.0 μg/mL to 8.0 μg/mL = B)
MIC ASAU 001 ([6]; Table 3): B (MIC's of 1.0 μg/mL to 2.0 μg/mL = B)
MIC AECO 001 ([7]; Table 2, 35° C., 20 hours): B (MIC's of greater than 1.0 μg/mL to 8.0 μg/mL = B)
MIC AECO 001 ([7]; Table 3): B (MIC's of 1.0 μg/mL to 2.0 μg/mL = B)
MIC ASPN1018 [8]: C (MIC's of 2.0 μg/mL to 8.0 μg/mL = C)
MIC AECO002 [9]: B (MIC's of 1.0 μg/mL to 2.0 μg/mL = B)
MIC ASPN002 [10]: C (MIC's of 2.0 μg/mL to 8.0 μg/mL = C)
MIC ASAU1033 [11]: D (MIC's of greater than 8.0 μg/mL = D)
MIC AECO086 [12]: D (MIC's of greater than 8.0 μg/mL = D)
MIC ASAU 1031 ([13]; Table 2): C (MIC's of greater than 8.0 μg/mL = C)
MIC ASAU 1031 ([13]; Table 3): D (MIC's of greater than 8.0 μg/mL = D)
MIC APAE 054 ([14]; Table 2): C (MIC's of greater than 8.0 μg/mL = C)
MIC APAE 054 ([14]; Table 3): D (MIC's of greater than 8.0 μg/mL = D)
MIC AECO 066 ([15]; Table 2): C (MIC's of greater than 8.0 μg/mL = C)
MIC AECO 066 ([15]; Table 3): D (MIC's of greater than 8.0 μg/mL = D)
MIC APAE002 [16]: D (MIC's of greater than 8.0 μg/mL = D)
MIC ASAU002 [17]: B (MIC's of 1.0 μg/mL to 2.0 μg/mL = B)
MIC AABA 1065 ([18]; Table 2): B (MIC's of greater than 1.0 μg/mL to 8.0 μg/mL = B)
MIC AABA 1065 ([18]; Table 3): C (MIC's of 2.0 μg/mL to 8.0 μg/mL = C)

Source: patent publication US20120058989A1, “ANTIBACTERIAL FLUOROQUINOLONE ANALOGS” (Achaogen, Inc., priority 2008, published 2012)
